In patent US7223865B2, “Chromogenic compounds, and use thereof as enzyme substrates” (Biomerieux, priority 2003, dated 2007):

Columns and labels:
Assay in all cases: L-alanine-aminopeptidase activity on gelled medium, Example 4
Type in all cases: cell-based
[1] = test system: Enterobacter cloacae (061); settings: 0.3 g/l, after the addition of HCl
Method: (§1) A gelled medium comprising L-Ala-2-MeOAPA or L-Ala-2,5-diMeOAPA is prepared as follows: 46.37 g of Columbia agar are added to 1 liter of distilled water and then autoclaved. This reaction medium is separated into two media of equivalent volume. Each of these media comprises, respectively: 0.3 g/l of L-Ala-2-MeOAPA, introduced by means of a stock solution in DMSO, and 0.3 g/l of L-Ala-2,5-diMeOAPA, also introduced by means of a stock solution in DMSO. Microorganisms derived from the applicant's collection were seeded onto each of the media, by delimitation as three dials, using a suspension at 0.5 McFarland. […] The color of these colonies and also the intensity of this color were noted after the addition of HCl.

[2] = test system: Streptococcus agalactiae (001); settings: 0.3 g/l, after the addition of HCl
Method: as §1

Proteus mirabilis (037) = settings: 0.3 g/l, after the addition of HCl
Method: as §1

Listeria innocua (036) = settings: 0.3 g/l, after the addition of HCl
Method: as §1

[3] = test system: Enterococcus faecalis (117); settings: for Color / Intensity: 0.3 g/l, after the addition of HCl
Method: as §1

[4] = test system: Staphylococcus aureus (035); settings: 0.3 g/l, after the addition of HCl
Method: as §1

Candida albicans (077) = settings: 0.3 g/l, after the addition of HCl
Method: as §1

[5] = test system: Klebsiella pneumoniae (023); settings: 0.3 g/l, after the addition of HCl
Method: as §1

Citrobacter koseri (012) = settings: 0.3 g/l, after the addition of HCl
Method: (§2) A gelled medium comprising L-Ala-2-MeOAPA or L-Ala-2,5-diMeOAPA is prepared as follows: 46.37 g of Columbia agar are added to 1 liter of distilled water and then autoclaved. This reaction medium is separated into two media of equivalent volume. Each of these media comprises, respectively: 0.3 g/l of L-Ala-2-MeOAPA, introduced by means of a stock solution in DMSO, and 0.3 g/l of L-Ala-2,5-diMeOAPA, also introduced by means of a stock solution in DMSO. Microorganisms derived from the applicant's collection were seeded onto each of the media, by delimitation as three dials, using a suspension at 0.5 McFarland. The dishes were incubated at 37° C. for 24 hours. The color of these colonies and also the intensity of this color were noted after the addition of HCl.

Escherichia coli (032) = settings: 0.3 g/l, after the addition of HCl
Method: as §2

## COc1cc(-c2c3ccccc3nc3ccccc23)c(OC)cc1NC(=O)[C@H](C)N [L-Ala-2,5-diMeOAPA, L-alanyl-2,5-dimethoxyaminophenylacridine]
[1]; 24 H
  Color: Yellow-orange
  Intensity: 1.5
[1]; 48 h
  Color: Yellow-orange
  Intensity: 2
[2]; 24 H
  Color: colorless
  Intensity: 0
[2]; 48 h
  Color: colorless
  Intensity: 0
Proteus mirabilis (037); 24 H
  Color: colorless
  Intensity: 0
Proteus mirabilis (037); 48 h
  Color: orange
  Intensity: 0.5
Listeria innocua (036); 24 H
  Color: colorless
  Intensity: 0
Listeria innocua (036); 48 h
  Color: colorless
  Intensity: 0
[3]; 24 H
  Color: Yellow-orange
  Intensity: 0.5
[3]; 48 h
  Color: Yellow-orange
  Intensity: 3
[3]; after incubation for 48 hours
  L-alanine-aminopeptidase activity: exhibits an activity
[4]; 24 H
  Color: colorless
  Intensity: 0
[4]; 48 h
  Color: colorless
  Intensity: 0
Candida albicans (077); 24 H
  Color: colorless
  Intensity: 0
Candida albicans (077); 48 h
  Color: colorless
  Intensity: 0
[5]; 24 H
  Color: orange
  Intensity: 1
[5]; 48 h
  Color: Yellow-orange
  Intensity: 2.5
Citrobacter koseri (012); 24 H
  Color: orange
  Intensity: 1
Citrobacter koseri (012); 48 h
  Color: Yellow-orange
  Intensity: 2.5
Escherichia coli (032); 24 H
  Color: Yellow-orange
  Intensity: 1.5
Escherichia coli (032); 48 h
  Color: Yellow-orange
  Intensity: 2
